One assay addresses WT STING (Homo sapiens, UniProt Q86WV6, H232R). Description: Differential scanning fluorimetry (DSF) with WT STING. Format: binding. Also on record: truncated human WT STING or AQ STING (amino acid residues 140-343); 8xHis (N, cleaved yes); SUMO (N, cleaved yes); made in house; host or cells: E. coli Rosetta-gami B (DE3). The settings on record: for ΔTm at 150 µM: read-out: DSF ΔTm WT STING. The source says:
(§1) Both WT and AQ human STING (G230A-R^293Q) cDNA were amplified by the use of PCR (Phusion® High-Fidelity DNA Polymerase, cat. # M0530S, NEB, Ipswich, USA) using oligonucleotides hSTING140-BamH-For ([…]) (SEQ ID NO:5) and hSTING379-Not-Rev3 ([…]) (SEQ ID NO:6) from pUNOI-hSTING-WT (cat. # punol-hstingwt, InvivoGen, San Diego, USA) and pUNO1-hSTING-HAQ plasmids (punol-hsting-haq, InvivoGen, San Diego, USA). Purified PCR products were cleaved with restriction enzymes BamHI (cat. # R^0136S, NEB, Ipswich, USA) and NotI (cat. # R^0189S, NEB, Ipswich, USA) and cloned into the pSUMO vector linearized with the identical enzymes. Plasmid pSUMO was created by introducing 8-His-SUMO sequence between NdeI and BamHI sites of pHis-parallel2 plasmid (Clontech, Moutain View, USA). pSUMO-STING WT or pSUMO-STING AQ plasmids thus encoded truncated human WT STING or AQ STING (amino acid residues 140-343) with N-terminal 8×His and SUMO tag.
(§2) The recombinant WT STING and AQ STING proteins were overexpressed in Rosetta-gami B (DE3) competent cells (cat. #71136-3, Merck Millipore, Billerica, USA). Bacterial pellets were re-suspended in ice-cold lysis buffer containing 50 mmol·l^−1 TrisCl (cat. # T1503, Sigma Aldrich, Czech Republic) pH 8.0, 300 mmol·l^−1 NaCl, 3 mmol·l^−1 (3-mercaptoethanol (cat. # M6250, Sigma Aldrich, Czech Republic), 10% glycerol (cat. #G5516, Sigma Aldrich, Czech Republic) and 20 mmol·l^−1 imidazole (cat. #15513, Sigma Aldrich, Czech Republic) using Dounce homogenizer. DNase I (cat. # D5025, Sigma Aldrich, Czech Republic) and RNase A (cat. # R^6513, Sigma Aldrich, Czech Republic) were added (final concentration 50 μg/ml) together with MgCl2 (final concentration 5 mmol·l^−1) to the homogenate and bacteria were lysed using French Press G-M™ High-Pressure Cell Press Homogenizer (1500 psi, 3 cycles). Lysate was spun 30,000 g for 20 minutes and supernatant was gently stirred with Ni-NTA resin (cat. #745400.25 Macherey-Nagel, Duren, Germany) for 30 minutes. The resin was poured into a chromatography column, washed with 50 ml buffer A (50 mmol·l^−1 TrisCl (pH 8.0), 800 mmol·l^−1 NaCl, 3 mmol·l^−1β-mercaptoethanol; 10% glycerol; 20 mmol·l^−1 imidazole) and 8-His-SUMO tagged STING proteins were eluted with 15 ml buffer A containing 300 mmol·l^−1 imidazole. The eluted proteins were cleaved with recombinant SUMO protease (80 pig/ml of protein solution, cat. #12588018, ThermoFisher, Waltham, USA). The proteins were further purified by size exclusion chromatography using HiLoad 16/60 Superdex 75 (cat. #28989333, GE Healthcare Bio-Sciences, Pittsburgh, USA) in 50 mmol·l^−1 Tris C1 buffer pH 7.4 containing 150 mmol·l^−1 NaCl, and 10% glycerol. Proteins were concentrated with Amicon® Ultra-15 10 K device (cat. # UFC901008, Merck Millipore, Billerica, USA) and flash frozen in liquid N2.
(§3) WT and AQ allelic forms of STING protein were diluted to the final concentration 0.1 mg/ml in 100 mmol·l^−1 TrisCl buffer pH 7.4 containing, 150 mmol·l^−1 NaCl, 1:500 SYPRO Orange (cat. # S6650, ThermoFisher, Waltham, USA) and 150 μM CDN or water. 20 μL solutions of the reaction mixtures were pipetted in triplicates into 96 well optical reaction plates and thermal denaturation of samples were performed on real time PCR cycler (LightCycler® 480 Instrument II—Roche, Basel, Switzerland). The first derivative of the thermal denaturation curves was performed to calculate denaturing temperatures of STING-CDN complexes and STING apoproteins. The thermal shift for each CDN was calculated by subtracting the average denaturing temperature of STING apoprotein from the average denaturing temperature of STING CDN complex.

The target in the next assay is T1, AQ STING (G230A-R293Q) (Homo sapiens, UniProt Q86WV6, G230A/H232R/R293Q).
T1 construct: truncated human WT STING or AQ STING (amino acid residues 140-343); 8xHis (N, cleaved yes); SUMO (N, cleaved yes); made in house; host or cells: E. coli Rosetta-gami B (DE3)
Description: Differential scanning fluorimetry (DSF) with AQ STING. Format: binding. The note with it: for ΔTm at 150 µM: read-out: DSF ΔTm AQ STING.
Source text: as §1, §2, §3

Setting [1] is: thermal shift, truncated human WT STING 0.1 mg/ml, 150 μM CDN.
Where [2] appears, read: thermal shift, truncated human AQ STING 0.1 mg/ml, 150 μM CDN.

The source of these data is patent US20190359645A1, “2'3'-CYCLIC DINUCLEOTIDES COMPRISING CARBOCYCLIC NUCLEOTIDE” (Institute of Organic Chemistry and Biochemistry ASCR, V.V.I., priority 2018, published 2019).

Structures are written as SMILES. Read-outs that look alike come from different tables or passages of the source.

A word on the ΔTm: it is the shift of the melting midpoint relative to a reference.

Chain of WT STING (Q86WV6 140-343 H232R): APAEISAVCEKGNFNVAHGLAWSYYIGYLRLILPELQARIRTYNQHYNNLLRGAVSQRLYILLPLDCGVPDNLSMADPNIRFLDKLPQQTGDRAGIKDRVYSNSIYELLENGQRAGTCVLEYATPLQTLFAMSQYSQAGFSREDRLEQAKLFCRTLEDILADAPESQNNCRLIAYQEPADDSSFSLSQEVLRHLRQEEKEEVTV
T1 sequence (Q86WV6 140-343 G230A/H232R/R293Q): as the sequence (Q86WV6 140-343 H232R) above, with G91A, R154Q counted along it

Regarding `Nc1ncnc2c1ncn2[C@@H]1O[C@@H]2COP(=O)(S)O[C@@H]3[C@H](F)[C@@H](COP(=O)(S)O[C@H]2[C@H]1F)C[C@H]3n1cnc2c(=O)[nH]cnc21` (single isomer, unassigned) [Compound 128a], the results for the ΔTm at 150 µM on WT STING (setting [1]) and on AQ STING (G230A-R293Q) (setting [2]) were 9.3 °C and 16.5 °C, respectively.
Turning to `Nc1ncnc2c1ncn2[C@@H]1O[C@@H]2COP(=O)(S)O[C@@H]3[C@H](F)[C@@H](COP(=O)(S)O[C@H]2[C@H]1F)C[C@H]3n1cnc2c(=O)[nH]cnc21` (single isomer, unassigned) [Compound 128b], on WT STING (setting [1]), the “DSF ΔTm WT STING” value was 7.9 °C. In addition, on AQ STING (G230A-R293Q) (setting [2]), the “DSF ΔTm AQ STING” value was 13.8 °C.
On to `Nc1ncnc2c1ncn2[C@@H]1O[C@@H]2COP(=O)(S)O[C@@H]3[C@H](F)[C@@H](COP(=O)(S)O[C@H]2[C@H]1F)C[C@H]3n1cnc2c(=O)[nH]cnc21` (single isomer, unassigned) [Compound 128c], for which the “DSF ΔTm WT STING” value on WT STING (setting [1]) is 11.4 °C. Also, on AQ STING (G230A-R293Q) (setting [2]), the “DSF ΔTm AQ STING” value was 18.2 °C.
The matching figures for `Nc1ncnc2c1ncn2[C@@H]1O[C@@H]2COP(=O)(S)O[C@@H]3[C@H](F)[C@@H](COP(=O)(S)O[C@H]2[C@H]1F)C[C@H]3n1cnc2c(=O)[nH]cnc21` (single isomer, unassigned) [Compound 128d]: 13.4 °C and 21.3 °C.
On to `Nc1nc2c(ncn2[C@@H]2C[C@@H]3COP(=O)(O)OC4C(O)[C@H](n5cnc6c(N)ncnc65)O[C@@H]4COP(O)(=S)OC2C3O)c(=O)[nH]1` (stereo partly drawn) [Compound 101, 2-amino-9-[(6R,8R,15R,17R)-8-(6-amino-9H-purin-9-yl)-3,9,12,18-tetrahydroxy-12-oxo-3-sulfanylidene-2,4,7,11,13-pentaoxa-3λ^5,12λ^5-diphosphatricyclo[13.2.1.0^6,10]octadecan-17-yl]-6,9-dihydro-1H-purin-6-one], for which the ΔTm at 150 µM is 12 °C at WT STING and 19.8 °C at AQ STING (G230A-R293Q).
As for `Nc1nc2c(ncn2[C@@H]2C[C@@H]3COP(=O)(O)OC4C(O)[C@H](n5cnc6c(N)ncnc65)O[C@@H]4COP(=O)(O)OC2C3O)c(=O)[nH]1` (stereo partly drawn) [Compound 102, (6R,8R,15R,17R)-17-(2-amino-6-oxo-6,9-dihydro-1H-purin-9-yl)-8-(6-amino-9H-purin-9-yl)-3,9,12,18-tetrahydroxy-2,4,7,11,13-pentaoxa-3λ^5,12λ^5-diphosphatricyclo[13.2.1.0^6,10]octadecane-3,12-dione], the results for the ΔTm at 150 µM at WT STING (setting [1]) and at AQ STING (G230A-R293Q) (setting [2]) were 13.3 °C and 19.8 °C, respectively.
Regarding `Nc1nc2c(ncn2[C@@H]2C[C@@H]3COP(=O)(O)OC4C(O)[C@H](n5cnc6c(N)nc(F)nc65)O[C@@H]4COP(=O)(O)OC2C3O)c(=O)[nH]1` (stereo partly drawn) [Compound 103, (6R,8R,15R,17R)-8-(6-amino-2-fluoro-9H-purin-9-yl)-17-(2-amino-6-oxo-6,9-dihydro-1H-purin-9-yl)-3,9,12,18-tetrahydroxy-2,4,7,11,13-pentaoxa-3λ^5,12λ^5-diphosphatricyclo[13.2.1.0^6,10]octadecane-3,12-dione], the ΔTm at 150 µM amounted to 7.9 °C on WT STING (setting [1]) and 15.2 °C on AQ STING (G230A-R293Q) (setting [2]).
Consider `Nc1nc2c(ncn2[C@@H]2C[C@@H]3COP(=O)(O)OC4C(O)[C@H](n5cnc6c(=O)[nH]cnc65)O[C@@H]4COP(=O)(O)OC2C3O)c(=O)[nH]1` (stereo partly drawn) [Compound 104, (6R,8R,15R,17R)-17-(2-amino-6-oxo-6,9-dihydro-1H-purin-9-yl)-3,9,12,18-tetrahydroxy-8-(6-oxo-6,9-dihydro-1H-purin-9-yl)-2,4,7,11,13-pentaoxa-3λ^5,12λ^5-diphosphatricyclo[13.2.1.0^6,10]octadecane-3,12-dione], for which the ΔTm at 150 µM was found to be 5 °C on WT STING (setting [1]) and 13.3 °C on AQ STING (G230A-R293Q) (setting [2]).
The matching figures for `Nc1nc(N)c2ncn([C@@H]3O[C@@H]4COP(=O)(O)OC5C(O)[C@@H](COP(=O)(O)OC4C3O)C[C@H]5n3cnc4c(=O)[nH]c(N)nc43)c2n1` (stereo partly drawn) [Compound 105, (6R,8R,15R,17R)-17-(2-amino-6-oxo-6,9-dihydro-1H-purin-9-yl)-8-(2,6-diamino-9H-purin-9-yl)-3,9,12,18-tetrahydroxy-2,4,7,11,13-pentaoxa-3λ^5,12λ^5-diphosphatricyclo[13.2.1.0^6,10]octadecane-3,12-dione]: 5.2 °C and 13.2 °C.
Taken in the same sequence, the figures for `Nc1ncc2ncn([C@@H]3O[C@@H]4COP(=O)(O)OC5C(O)[C@@H](COP(=O)(O)OC4C3O)C[C@H]5n3cnc4c(=O)[nH]c(N)nc43)c2n1` (stereo partly drawn) [Compound 106, (6R,8R,15R,17R)-17-(2-amino-6-oxo-6,9-dihydro-1H-purin-9-yl)-8-(2-amino-9H-purin-9-yl)-3,9,12,18-tetrahydroxy-2,4,7,11,13-pentaoxa-3λ^5,12λ^5-diphosphatricyclo[13.2.1.0^6,10]octadecane-3,12-dione] were 5.5 °C and 13.8 °C.
The matching figures for `Nc1nc2c(ncn2[C@@H]2C[C@@H]3COP(=O)(O)OC4C(O)[C@H](n5cnc6c(S)ncnc65)O[C@@H]4COP(=O)(O)OC2C3O)c(=O)[nH]1` (stereo partly drawn) [Compound 107, (6R,8R,15R,17R)-17-(2-amino-6-oxo-6,9-dihydro-1H-purin-9-yl)-3,9,12,18-tetrahydroxy-8-(6-sulfanyl-9H-purin-9-yl)-2,4,7,11,13-pentaoxa-3λ^5,12λ^5-diphosphatricyclo[13.2.1.0^6,10]octadecane-3,12-dione]: 2.2 °C and 7.9 °C.
As to `CNc1ncnc2c1ncn2[C@@H]1O[C@@H]2COP(=O)(O)OC3C(O)[C@@H](COP(=O)(O)OC2C1O)C[C@H]3n1cnc2c(=O)[nH]c(N)nc21` (stereo partly drawn) [Compound 108, (6R,8R,15R,17R)-17-(2-amino-6-oxo-6,9-dihydro-1H-purin-9-yl)-3,9,12,18-tetrahydroxy-8-[6-(methylamino)-9H-purin-9-yl]-2,4,7,11,13-pentaoxa-3λ^5,12λ^5-diphosphatricyclo[13.2.1.0^6,10]octadecane-3,12-dione], the ΔTm at 150 µM came to 6 °C at WT STING (setting [1]) and 12.5 °C on AQ STING (G230A-R293Q) (setting [2]).
Taken in the same sequence, the figures for `Nc1nc2c(ncn2[C@@H]2C[C@@H]3COP(=O)(O)OC4C(N)[C@H](n5cnc6c(N)ncnc65)O[C@@H]4COP(=O)(O)OC2C3O)c(=O)[nH]1` (stereo partly drawn) [Compound 109, (6R,8R,15R,17R)-9-amino-17-(2-amino-6-oxo-6,9-dihydro-1H-purin-9-yl)-8-(6-amino-9H-purin-9-yl)-3,12,18-trihydroxy-2,4,7,11,13-pentaoxa-3λ^5,12λ^5-diphosphatricyclo[13.2.1.0^6,10]octadecane-3,12-dione] were 5.6 °C and 12.8 °C.
